Results taken from US9938281B2 (Merck Sharp & Dohme Corp., priority 2012, dated 2018).

Columns and labels:
[1] = target: T1, PI3K-delta (Homo sapiens, UniProt O00329); assay: HTRF PI3K biochemical assay, delta isoform; settings: form screened (neutral or TFA salt) given, read-out: PI3Kdelta IC50
T1 construct: purchased Upstate; Millipore 14-604

[2] = target: T2, PI3K-alpha (Homo sapiens, UniProt P42336); assay: HTRF PI3K biochemical assay, alpha isoform; settings: ratio PI3K-alpha IC50 value / PI3K-delta IC50 value
T2 construct: purchased Upstate; Millipore 14-602
T2 sequence (P42336 whole entry, canonical isoform): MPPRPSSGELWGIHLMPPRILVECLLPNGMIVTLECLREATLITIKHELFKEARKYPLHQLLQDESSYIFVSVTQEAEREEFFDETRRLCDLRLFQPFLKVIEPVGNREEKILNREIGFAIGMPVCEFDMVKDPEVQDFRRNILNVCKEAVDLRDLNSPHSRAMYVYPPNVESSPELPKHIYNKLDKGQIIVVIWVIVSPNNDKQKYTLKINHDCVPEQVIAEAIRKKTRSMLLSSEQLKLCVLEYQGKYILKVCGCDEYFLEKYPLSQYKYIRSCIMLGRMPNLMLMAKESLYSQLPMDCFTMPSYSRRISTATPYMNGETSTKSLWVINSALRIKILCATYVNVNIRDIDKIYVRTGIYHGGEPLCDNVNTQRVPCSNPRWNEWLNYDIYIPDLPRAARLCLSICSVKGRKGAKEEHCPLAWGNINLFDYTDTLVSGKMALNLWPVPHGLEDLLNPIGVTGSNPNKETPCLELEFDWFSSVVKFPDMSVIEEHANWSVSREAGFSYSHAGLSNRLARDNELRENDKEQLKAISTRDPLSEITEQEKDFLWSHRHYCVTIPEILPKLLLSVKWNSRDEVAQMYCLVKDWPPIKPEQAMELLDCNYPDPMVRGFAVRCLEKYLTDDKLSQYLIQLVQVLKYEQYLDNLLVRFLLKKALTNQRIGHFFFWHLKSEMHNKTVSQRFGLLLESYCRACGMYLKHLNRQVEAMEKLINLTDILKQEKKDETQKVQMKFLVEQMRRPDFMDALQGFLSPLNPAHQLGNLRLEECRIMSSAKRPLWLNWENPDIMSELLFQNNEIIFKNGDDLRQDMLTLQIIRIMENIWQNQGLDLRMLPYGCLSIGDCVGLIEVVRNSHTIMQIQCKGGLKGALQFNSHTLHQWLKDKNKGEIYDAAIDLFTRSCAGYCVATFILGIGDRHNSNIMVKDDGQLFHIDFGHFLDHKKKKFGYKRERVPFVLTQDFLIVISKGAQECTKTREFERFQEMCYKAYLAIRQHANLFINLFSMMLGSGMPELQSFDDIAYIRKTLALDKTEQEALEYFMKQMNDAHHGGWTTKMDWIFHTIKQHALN
T2 sequence (P27986 whole entry partner, canonical isoform): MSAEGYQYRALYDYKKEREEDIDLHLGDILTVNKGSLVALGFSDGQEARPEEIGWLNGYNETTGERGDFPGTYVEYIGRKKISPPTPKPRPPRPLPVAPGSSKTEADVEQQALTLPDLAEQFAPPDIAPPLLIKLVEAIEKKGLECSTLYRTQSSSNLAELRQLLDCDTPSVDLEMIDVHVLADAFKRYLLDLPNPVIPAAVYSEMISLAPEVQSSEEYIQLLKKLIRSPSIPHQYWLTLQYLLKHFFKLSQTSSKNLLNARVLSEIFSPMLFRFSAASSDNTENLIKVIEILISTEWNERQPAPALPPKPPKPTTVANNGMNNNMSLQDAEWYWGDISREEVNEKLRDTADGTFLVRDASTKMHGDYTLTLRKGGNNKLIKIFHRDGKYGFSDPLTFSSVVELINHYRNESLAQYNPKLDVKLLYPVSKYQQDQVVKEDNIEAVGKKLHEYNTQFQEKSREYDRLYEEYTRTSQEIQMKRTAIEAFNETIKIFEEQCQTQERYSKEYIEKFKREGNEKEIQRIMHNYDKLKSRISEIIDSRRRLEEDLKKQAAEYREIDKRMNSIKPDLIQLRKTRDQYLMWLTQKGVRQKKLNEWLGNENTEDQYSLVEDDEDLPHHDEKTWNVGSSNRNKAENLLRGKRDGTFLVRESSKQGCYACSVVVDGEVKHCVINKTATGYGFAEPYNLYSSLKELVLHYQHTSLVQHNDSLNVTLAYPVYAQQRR

T1 sequence (O00329 whole entry, canonical isoform): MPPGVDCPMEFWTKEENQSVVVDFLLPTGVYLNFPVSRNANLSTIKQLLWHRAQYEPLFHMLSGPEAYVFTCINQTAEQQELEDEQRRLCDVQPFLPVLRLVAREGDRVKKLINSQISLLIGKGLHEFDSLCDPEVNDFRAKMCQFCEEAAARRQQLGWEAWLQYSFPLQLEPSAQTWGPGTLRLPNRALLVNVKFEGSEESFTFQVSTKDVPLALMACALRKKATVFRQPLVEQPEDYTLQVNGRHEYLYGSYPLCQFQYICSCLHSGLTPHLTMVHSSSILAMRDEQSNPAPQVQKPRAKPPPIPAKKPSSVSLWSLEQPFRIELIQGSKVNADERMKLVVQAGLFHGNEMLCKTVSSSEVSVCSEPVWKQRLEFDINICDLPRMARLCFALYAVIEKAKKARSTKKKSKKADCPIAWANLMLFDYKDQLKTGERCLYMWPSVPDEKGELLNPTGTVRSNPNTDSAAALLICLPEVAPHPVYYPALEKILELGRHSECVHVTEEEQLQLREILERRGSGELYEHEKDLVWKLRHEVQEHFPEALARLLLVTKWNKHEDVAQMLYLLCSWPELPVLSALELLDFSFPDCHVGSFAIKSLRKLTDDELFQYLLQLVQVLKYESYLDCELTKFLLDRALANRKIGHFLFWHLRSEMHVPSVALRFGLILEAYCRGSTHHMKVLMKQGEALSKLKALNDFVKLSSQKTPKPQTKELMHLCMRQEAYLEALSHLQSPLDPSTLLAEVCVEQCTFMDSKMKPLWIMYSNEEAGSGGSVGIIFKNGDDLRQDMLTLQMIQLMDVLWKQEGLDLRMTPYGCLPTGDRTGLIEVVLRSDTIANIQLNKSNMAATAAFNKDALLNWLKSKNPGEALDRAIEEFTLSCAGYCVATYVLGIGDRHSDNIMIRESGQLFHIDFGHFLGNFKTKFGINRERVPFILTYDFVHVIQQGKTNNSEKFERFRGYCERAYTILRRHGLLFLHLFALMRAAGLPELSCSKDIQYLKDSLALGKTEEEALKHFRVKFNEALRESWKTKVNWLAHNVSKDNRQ
T1 sequence (P27986 whole entry partner, canonical isoform): as the sequence (P27986 whole entry partner, canonical isoform) above

Structure (SMILES)	IC50 [1] [nM]	Selectivity versus PI3Kalpha [2]
CCn1c(-c2cnc(C)nc2)nc2c(N[C@H]3CCN(C(=O)[C@@H]4CCCN4C)C3)ncnc21 [Compound 2-43, 9-ethyl-N-[(3S)-1-(1-methyl-L-prolyl)pyrrolidin-3-yl]-8-(2-methylpyrimidin-5-yl)-9H-purin-6-amine]	16	>10
CCn1c(-c2cnc(C)nc2)nc2c(N[C@H]3CCCN(C(=O)C(C)C)C3)ncnc21 [Compound 2-44, 9-ethyl-N-[(3S)-1-(2-methylpropanoyl)piperidin-3-yl]-8-(2-methylpyrimidin-5-yl)-9H-purin-6-amine]	9	>10
CCC(=O)N1CC(Nc2ncnc3c2nc(-c2cnn(CC)c2C)n3C)C1 [Compound 2-45, 8-(1-ethyl-5-methyl-1H-pyrazol-4-yl)-9-methyl-N-(1-propanoylazetidin-3-yl)-9H-purin-6-amine]	57	>10
CCC(=O)N1CCC[C@H](Nc2ncnc3c2nc(-c2cnn(CC)c2C)n3C)C1 [Compound 2-46, 8-(1-ethyl-5-methyl-1H-pyrazol-4-yl)-9-methyl-N-[(3S)-1-propanoylpiperidin-3-yl]-9H-purin-6-amine]	9.2	>10
CCn1c(-c2cnc(C)nc2)nc2c(N[C@H]3CCN(C(=O)C4(C)CC4)C3)ncnc21 [Compound 2-47, 9-ethyl-N-{(3S)-1-[(1-methylcyclopropyl)carbonyl]pyrrolidin-3-yl}-8-(2-methylpyrimidin-5-yl)-9H-purin-6-amine]	17	>10
CCn1ncc(-c2nc3c(NC4CN(C(=O)C5CCOCC5)C4)ncnc3n2C)c1C [Compound 2-48, 8-(1-ethyl-5-methyl-1H-pyrazol-4-yl)-9-methyl-N-[1-(tetrahydro-2H-pyran-4-ylcarbonyl)azetidin-3-yl]-9H-purin-6-amine]	16	>10
CCn1c(-c2ccc(C(F)(F)F)nc2)nc2c(N[C@H]3CCN(C(=O)C4CC4)C3)ncnc21 [Compound 2-49, N-[(3S)-1-(cyclopropylcarbonyl)pyrrolidin-3-yl]-9-ethyl-8-[6-(trifluoromethyl)pyridin-3-yl]-9H-purin-6-amine]	1	>10
CCn1c(-c2ccc(OC)nc2)nc2c(N[C@H]3CCN(C(=O)C4CC4)C3)ncnc21 [Compound 2-50, N-[(3S)-1-(cyclopropylcarbonyl)pyrrolidin-3-yl]-9-ethyl-8-(6-methoxypyridin-3-yl)-9H-purin-6-amine]	< 1	>10
CCn1c(-c2ccc(C(F)(F)F)nc2)nc2c(N[C@H]3CCN(C(=O)[C@@H]4CC4(C)C)C3)ncnc21 [Compound 2-51, N-[(3S)-1-{[(1R)-2,2-dimethylcyclopropyl]carbonyl}pyrrolidin-3-yl]-9-ethyl-8-[6-(trifluoromethyl)pyridin-3-yl]-9H-purin-6-amine]	< 1	>10
CCn1c(-c2cnc(C)nc2)nc2c(N[C@H]3C[C@H](CO)N(C(=O)C4CC4)C3)ncnc21 [Compound 2-52, [(2R,4S)-1-(cyclopropylcarbonyl)-4-{[9-ethyl-8-(2-methylpyrimidin-5-yl)-9H-purin-6-yl]amino}pyrrolidin-2-yl]methanol]	4.9	>10
CCn1c(-c2cnc(C)nc2)nc2c(N[C@H]3C[C@H](C(=O)OC)N(C(=O)C4CC4)C3)ncnc21 [Compound 2-53, methyl (4S)-1-(cyclopropylcarbonyl)-4-{[9-ethyl-8-(2-methylpyrimidin-5-yl)-9H-purin-6-yl]amino}-D-prolinate]	4.7	>10
CCn1c(-c2cnc(C)nc2)nc2c(N[C@H]3C[C@@H](C(=O)OC)N(C(=O)C4CC4)C3)ncnc21 [Compound 2-54, methyl (4S)-1-(cyclopropylcarbonyl)-4-{[9-ethyl-8-(2-methylpyrimidin-5-yl)-9H-purin-6-yl]amino}-L-prolinate]	63	>10
CCn1c(-c2cnc(C)nc2)nc2c(N[C@H]3CCN(C(=O)C4(COC)CCC4)C3)ncnc21 [Compound 2-57, 9-ethyl-N-[(3S)-1-{[1-(methoxymethyl)cyclobutyl]carbonyl}pyrrolidin-3-yl]-8-(2-methylpyrimidin-5-yl)-9H-purin-6-amine]	7.1	>10
CCn1c(-c2cnc(C)nc2)nc2c(N[C@H]3CCN(C(=O)C4C(C)(C)C4(C)C)C3)ncnc21 [Compound 2-60, 9-ethyl-8-(2-methylpyrimidin-5-yl)-N-{(3S)-1-[(2,2,3,3-tetramethylcyclopropyl)carbon-yl]pyrrolidin-3-yl}-9H-purin-6-amine]	1.6	>10

Continued, values first:

IC50 [1] [nM]	Selectivity versus PI3Kalpha [2]	Structure (SMILES)
22	>10	CCn1c(-c2cnc(C)nc2)nc2c(N[C@H]3CCN(C(=O)C4(O)CCCC4)C3)ncnc21 [Compound 2-58, 1-{[(3S)-3-{[9-ethyl-8-(2-methylpyrimidin-5-yl)-9H-purin-6-yl]amino}pyrrolidin-1-yl]carbonyl}cyclopentanol]
< 1	>10	CCn1c(-c2cnc(C)nc2)nc2c(N[C@H]3CCN(C(=O)C4CC(C)(C)C4)C3)ncnc21 [Compound 2-59, N-{(3S)-1-[(3,3-dimethylcyclobutyl)carbonyl]pyrrolidin-3-yl}-9-ethyl-8-(2-methylpyrimidin-5-yl)-9H-purin-6-amine]
23	>10	CCn1c(-c2cnc(C)nc2)nc2c(N[C@H]3CCN(C(=O)C4(COC)CC4)C3)ncnc21 [Compound 2-61, 9-ethyl-N-[(3S)-1-{[1-(methoxymethyl)cyclopropyl]carbonyl}pyrrolidin-3-yl]-8-(2-methylpyrimidin-5-yl)-9H-purin-6-amine]
6	>10	CCn1c(-c2cnc(C)nc2)nc2c(N[C@H]3CCN(C(=O)C4(C#N)CCCC4)C3)ncnc21 [Compound 2-62, 1-{[(3S)-3-{[9-ethyl-8-(2-methylpyrimidin-5-yl)-9H-purin-6-yl]amino}pyrrolidin-1-yl]carbonyl}cyclopentanecarbo-nitrile]
11	>10	CCn1c(-c2cnc(C)nc2)nc2c(N[C@H]3CCN(C(=O)C4(C#N)CC4)C3)ncnc21 [Compound 2-65, 1-{[(3S)-3-{[9-ethyl-8-(2-methylpyrimidin-5-yl)-9H-purin-6-yl]amino}pyrrolidin-1-yl]carbonyl}cyclopropanecarbo-nitrile]
10	>10	CCn1c(-c2cnc(C)nc2)nc2c(N[C@H]3CCN(C(=O)C4(O)CC4)C3)ncnc21 [Compound 2-66, 1-{[(3S)-3-{[9-ethyl-8-(2-methylpyrimidin-5-yl)-9H-purin-6-yl]amino}pyrrolidin-1-yl]carbonyl}cyclopropanol]
3.8	>10	CCn1c(-c2cnc(C)nc2)nc2c(N[C@H]3CCN(C(=O)c4cncn4C)C3)ncnc21 [Compound 2-69, [(3S)-3-{[9-ethyl-8-(2-methylpyrimidin-5-yl)-9H-purin-6-yl]amino}pyrrolidin-1-yl](1-methyl-1H-imidazol-5-yl)methanone]
